Like-named read-outs stand apart in the source and are kept apart here.
Key:
[1] = test system: hepatitis B virus surface antigen (HBs); assay: Hepatitis-vaccine enhancing activity (adjuvant activity): anti-HBs IgG in mouse serum by ELISA; type: in vivo, female CDF1 mice; conditions: Experiment 2, 2000-fold dilution
Method: A compound of the present invention was dissolved in lipidmicrosphere (1 mg/ml). On the other hand, a solution of hepatitis B virus surface antigen (HBs) in physiological saline was prepared (50 μg/ml). The above solutions in equal amounts were mixed to prepare a test solution. A control solution was prepared by the exclusion of the compound of the present invention from said test solution. A mixture of a suspension of aluminium hydroxide gel in physiological saline (1 mg/ml) and said hepatitis vaccine preparation in equal amounts was prepared as another control solution. The test solution (0.2 ml) was intraperitoneally administered to each mouse in one group consisting of seven female CDF1 mice.
Blood samples were collected from the fundus ocluli vein of each mouse every week after the administration and then centrifuged to obtain serums. Three weeks after the administration, 0.2 ml of the test liquid was intraperitoneally administered again to each mouse for secondary stimulation. Then blood collecting was conducted every week to obtain serums after the application of the secondary stimulation, in the same manner as that described above.
The amount of the IgG antibodies against the hepatitis B virus surface antigens (HBs) in the serums thus obtained was determined with an ELISA method.

[2] = test system: influenza HA vaccine (B/Nagasaki/1/87 strain); type: in vivo, female CDF1 mice; conditions: Experiment 2, 8000-fold dilution
[3] = 4 W (after secondary stimulation at 3 weeks)
[4] = 5 W (after secondary stimulation at 3 weeks)

SMILES	Anti-HBs IgG antibody level in serum (ELISA absorbance at 415 nm) ([1]; 1 W) [O.D 415 nm]	Anti-HBs IgG antibody level in serum (ELISA absorbance at 415 nm) ([1]; 2 W) [O.D 415 nm]	Anti-HBs IgG antibody level in serum (ELISA absorbance at 415 nm) ([1]; 3 W) [O.D 415 nm]	Anti-HBs IgG antibody level in serum (ELISA absorbance at 415 nm) [1, 3] [O.D 415 nm]	Anti-HBs IgG antibody level in serum (ELISA absorbance at 415 nm) [1, 4] [O.D 415 nm]	Anti HA serum antigen value (average value ± S.D.) ([2]; 1 W) [O.D 415 nm]	Anti HA serum antigen value (average value ± S.D.) ([2]; 2 W) [O.D 415 nm]	Anti HA serum antigen value (average value ± S.D.) ([2]; 3 W) [O.D 415 nm]	Anti HA serum antigen value (average value ± S.D.) [2, 3] [O.D 415 nm]	Anti HA serum antigen value (average value ± S.D.) [2, 4] [O.D 415 nm]
CCCCCCCCCCCCCCCC(=O)O[C@H](CCCCCCCCCCC)CC(=O)O[C@H]1O[C@H](CO)[C@@H](O)[C@H](O[C@H](C)C(=O)N[C@@H](C)C(=O)N[C@H](CCC(=O)OC)C(N)=O)[C@H]1NC(C)=O [Example 17, N-[2-0-{2-Acetamido-2,3-dideoxy-1-0-((3R)-3-hexadecanoyloxytetradecanoyl)-α-D-glucopyranos-3-yl}-D-lactoyl]-L-alanyl-D-isoglutamine methylester]	0.001 ± 0.004	0.026 ± 0.001	0.051 ± 0.001	0.642 ± 0.021	0.615 ± 0.021	0.010 ± 0.002	0.122 ± 0.006	0.191 ± 0.001	0.611 ± 0.017	0.696 ± 0.014
CCCCCCCCCCCCCCCCCC(=O)OC[C@H]1O[C@H](OC(=O)C[C@@H](CCCCCCCCCCC)OC(=O)CCCCCCCCCCCCCCC)[C@H](NC(C)=O)[C@@H](O[C@H](C)C(=O)N[C@@H](C)C(=O)N[C@H](CCC(=O)OC)C(N)=O)[C@@H]1O [Example 18, N-[2-0-{2-Acetamido-2,3-dideoxy-6-0octadecanoyl-1-0-((3R)-3-hexadecanoyloxytetradecanoyl)-α-D-glucopyranos-3-yl}-D-lactoyl]-L-alanyl-D-isoglutamine methylester]	0	0.035 ± 0.007	0.050 ± 0.004	0.481 ± 0.006	0.375 ± 0.008	0	0.052 ± 0.004	0.075 ± 0.001	0.370 ± 0.005	0.360 ± 0.001
CCCCCCCCCCCCCCCC(=O)O[C@H](CCCCCCCCCCC)CC(=O)S[C@@H]1O[C@H](CO)[C@@H](O)[C@H](O[C@H](C)C(=O)N[C@@H](C)C(=O)N[C@H](CCC(=O)OC)C(N)=O)[C@H]1NC(C)=O [Example 19]	0	0.023 ± 0.000	0.042 ± 0.001	0.536 ± 0.011	0.521 ± 0.012	0	0.125 ± 0.003	0.187 ± 0.001	0.872 ± 0.002	0.936 ± 0.006
CCCCCCCCCCCCCCCCCC(=O)OC[C@H]1O[C@@H](SC(=O)C[C@@H](CCCCCCCCCCC)OC(=O)CCCCCCCCCCCCCCC)[C@H](NC(C)=O)[C@@H](O[C@H](C)C(=O)N[C@@H](C)C(=O)N[C@H](CCC(=O)OC)C(N)=O)[C@@H]1O [Example 20, N-[2-0-{2-Acetamido-2,3-dideoxy-6-0-octadecanoyl-1-S-((3R)-3-hexadecanoyloxytetradecanoyl)-1-thio-β-D-glucopyranos-3-yl}-D-lactoyl]-L-alanYl-D-isoglutamine methylester]	0.002 ± 0.001	0.044 ± 0.005	0.056 ± 0.003	0.814 ± 0.018	0.708 ± 0.002	0.001 ± 0.001	0.071 ± 0.001	0.110 ± 0.008	0.840 ± 0.011	0.857 ± 0.023
CCCCCCCCCCCCCCCCCC(=O)O[C@H](CCCCCCCCCCC)CC(=O)O[C@H]1O[C@H](CO)[C@@H](O)[C@H](O[C@H](C)C(=O)N[C@@H](C)C(=O)N[C@H](CCC(=O)OC)C(N)=O)[C@H]1NC(C)=O [Example 21, N-[2-0-{2-Acetamido-2,3-dideoxy-1-0-((3R)-3-octadecanoyloxytetradecanoyl)-α-D-glucopyranos-3-yl}-D-lactoyl]-L-alanyl-D-isoglutamine methylester]	0.006 ± 0.004	0.038 ± 0.000	0.058 ± 0.007	0.517 ± 0.006	0.498 ± 0.011	0	0.060 ± 0.001	0.097 ± 0.002	0.748 ± 0.003	0.758 ± 0.012
CCCCCCCCCCCCCCCCCC(=O)OC[C@H]1O[C@H](OC(=O)C[C@@H](CCCCCCCCCCC)OC(=O)CCCCCCCCCCCCCCCCC)[C@H](NC(C)=O)[C@@H](O[C@H](C)C(=O)N[C@@H](C)C(=O)N[C@H](CCC(=O)OC)C(N)=O)[C@@H]1O [Example 22]	0.005 ± 0.004	0.036 ± 0.007	0.053 ± 0.001	0.294 ± 0.006	0.254 ± 0.002	0.001 ± 0.004	0.065 ± 0.001	0.100 ± 0.003	0.411 ± 0.009	0.492 ± 0.002
CCCCCCCCCCCCCCCCCC(=O)O[C@H](CCCCCCCCCCC)CC(=O)S[C@@H]1O[C@H](CO)[C@@H](O)[C@H](O[C@H](C)C(=O)N[C@@H](C)C(=O)N[C@H](CCC(=O)OC)C(N)=O)[C@H]1NC(C)=O [Example 23, N-[2-0-{2-Acetamido-2,3-dideoxy-1-S-((3R)-3-octadecanoyloxytetradecanoyl)-1-thio-β-D-glucopyranos-3-yl}-D-lactoyl]-L-alanyl-D-isoglutamine methylester]	0.004 ± 0.001	0.051 ± 0.003	0.092 ± 0.004	0.639 ± 0.003	0.626 ± 0.008	0.008 ± 0.005	0.096 ± 0.001	0.183 ± 0.004	0.949 ± 0.006	1.030 ± 0.003
CCCCCCCCCCCCCCCCCC(=O)OC[C@H]1O[C@@H](SC(=O)C[C@@H](CCCCCCCCCCC)OC(=O)CCCCCCCCCCCCCCCCC)[C@H](NC(C)=O)[C@@H](O[C@H](C)C(=O)N[C@@H](C)C(=O)N[C@H](CCC(=O)O)C(N)=O)[C@@H]1O [Example 24, N-[2-0-{2-Acetamido-2,3-dideoxy-6-0-octadecanoyl-1-S-((3R)-3-octadecanoyloxytetradecanoyl)-1-thio-β-D-glucopyranos-3-yl}-D-lactoyl]-L-alanyl-D-isoglutamine]	0.007 ± 0.001	0.034 ± 0.001	0.050 ± 0.000	0.579 ± 0.007	0.513 ± 0.011	0.006 ± 0.001	0.085 ± 0.005	0.113 ± 0.007	0.771 ± 0.003	0.791 ± 0.004

— patent US5075287A, “Muramyl peptide derivatives and immunoregulating compositions containing them” (priority 1989, dated 1991)
